pIC50: −log10 of the molar value.
target: T1, PAR2 (Homo sapiens, UniProt P55085); assay: Intracellular calcium concentration measurement (SLIGKV-NH2-induced calcium change, Fluo-8, FDSS/μCELL); assay type: cell-based; settings: HEK293 cells; SLIGKV-NH2 10 μM-induced intracellular calcium change; read-out: IC50
T1 construct: HEK293 cell lines derived from human embryonic kidney cultured in a MEM culture medium; endogenous in cells; host or cells: HEK293
T1 sequence (P55085 26-397): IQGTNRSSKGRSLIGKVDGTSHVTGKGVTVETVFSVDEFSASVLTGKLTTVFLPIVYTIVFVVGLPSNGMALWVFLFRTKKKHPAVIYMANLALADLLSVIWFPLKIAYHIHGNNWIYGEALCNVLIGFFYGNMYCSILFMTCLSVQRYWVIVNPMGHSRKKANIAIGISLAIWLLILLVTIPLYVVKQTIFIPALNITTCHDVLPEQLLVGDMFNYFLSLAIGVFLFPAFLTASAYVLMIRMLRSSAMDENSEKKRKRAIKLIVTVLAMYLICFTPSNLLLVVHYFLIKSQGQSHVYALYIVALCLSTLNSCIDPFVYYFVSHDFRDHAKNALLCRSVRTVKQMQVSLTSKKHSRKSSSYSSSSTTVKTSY

pIC50	Structure (SMILES)
6.95	CC1(C)CCCCN1C(=O)c1cc2nc(C3C4CC5CC(C4)CC3C5)cc(C(F)(F)F)n2n1 (stereo not drawn) [Example 112]
6.58	COC1CCN(C(=O)c2cc3nc(CC4CCCC4)cc(C(F)(F)F)n3n2)C(C)(C)C1 (stereo not drawn) [Example 113]
6.63	COC1CCN(C(=O)c2cc3nc(CC4CCCC4)cc(C(C)C)n3n2)C(C)(C)C1 (stereo not drawn) [Example 114]
6.63	O=C(c1cc2nc(CC3CCCCC3)cc(C3CCCCCC3)n2n1)N1CCCCCC1 [Example 115]
6.63	COCCN1CCN(C(=O)c2cc3nc(CC4CCCCC4)cc(C(C)C)n3n2)C(C)(C)C1 [Example 116, [5-(cyclohexylmethyl)-7-propan-2-ylpyrazolo[1,5-a]pyrimidin-2-yl]-[4-(2-methoxyethyl)-2,2-dimethylpiperazin-1-yl]methanone]
6.60	CC(C)c1cc(CC2CCCCC2)nc2cc(C(=O)N3CCC(O)CC3(C)C)nn12 (stereo not drawn) [Example 118]
6.73	CC(C)c1cc(CC2CCCCC2)nc2cc(C(=O)N3CCC(C)(C)C(=O)C3(C)C)nn12 [Example 119]
6.53	CC(C)c1cc(CC2CCCCC2)nc2cc(C(=O)N3CCC(C)(C)C(O)C3(C)C)nn12 (stereo not drawn) [Example 120]
6.61	CCc1cc(C2CCCCC2)nc2cc(C(=O)N3CCCCC3(C)C)nn12 [Example 121]
6.75	COC1(C)CCCN(C(=O)c2cc3nc(CC4CCCCC4)cc(C(C)C)n3n2)C1(C)C (stereo not drawn) [Example 122]
6.87	CC(C)c1cc(CC2CCCC2)nc2cc(C(=O)N3CC=CCCC3)nn12 [Example 123]
6.84	CCC(C)c1cc(CC2CCCCC2)nc2cc(C(=O)N3CCCCC3(C)C)nn12 (stereo not drawn) [Example 124]
6.59	CC(C)c1cc(CC2CCCCC2)nc2cc(C(=O)N3CCSCC3)nn12 [Example 125]
6.68	CC(C)c1cc(CC2CCCCC2)nc2cc(C(=O)N3CC=CCCC3)nn12 [Example 126]
6.64	CC1CCCN(C(=O)c2cc3nc(CC4CCCC4)cc(C(C)C)n3n2)CC1 (stereo not drawn) [Example 127]
6.82	CCC(C)c1cc(CC2CCCCC2)nc2cc(C(=O)N3CCSCC3)nn12 (stereo not drawn) [Example 128]

pIC50	Structure (SMILES)
6.68	C=C1CCCN(C(=O)c2cc3nc(CC4CCCC4)cc(C(C)C)n3n2)C1(C)C [Example 129]
6.53	CCC(CC)c1cc(CC2CCCCCC2)nc2cc(C(=O)N3CCCCC3(C)C)nn12 [Example 130]
6.65	CCCN(CC)c1cc(CC2CCCCC2)nc2cc(C(=O)N3CCCCCC3)nn12 [Example 131]
6.71	CC1CCC(Cc2cc(C(C)C)n3nc(C(=O)N4CCCCC4)cc3n2)CC1 (stereo not drawn) [Example 132]
6.42	O=C(c1cc2nc(CC3CCCC3)cc(C3CCCCC3)n2n1)N1CCCCCC1 [Example 134]
6.41	CCCN(C)c1cc(CC2CCCCC2)nc2cc(C(=O)N3CCCCCC3)nn12 [Example 135]
6.34	CCc1cc(C2CCCCCC2)nc2cc(C(=O)N3CCCCCC3)nn12 [Example 136]
6.32	O=C(c1cc2nc(CC3CCCCC3)cc(C3CCC3)n2n1)N1CCCCCC1 [Example 137]
7.14	CCC1CCC(Cc2cc(C(C)C)n3nc(C(=O)N4CCCCC4)cc3n2)CC1 (stereo not drawn) [Example 138]
7.02	CCC1CCC(Cc2cc(C(C)C)n3nc(C(=O)N4CCCCCC4)cc3n2)CC1 (stereo not drawn) [Example 139]
6.58	CC(C)c1cc(CC2CCCCC2)nc2cc(C(=O)N3CCCCC3)nn12 [Example 140]
6.52	CCC(C)c1cc(CC2CCCC2)nc2cc(C(=O)N3CCCCC3)nn12 (stereo not drawn) [Example 141]
6.77	CC(C)c1cc(CC2CCCCC2)nc2cc(C(=O)N3CCCC(F)(F)CC3)nn12 [Example 142]
7.04	CCC(C)c1cc(CC2CCCCC2)nc2cc(C(=O)N3CCCCCCC3)nn12 (stereo not drawn) [Example 143]
6.60	CCc1cc(CC2CCCC2)nc2cc(C(=O)N3CCCCCCC3)nn12 [Example 145]
6.87	CCc1cc(CC2CCCCC2)nc2cc(C(=O)N3CCCCCCC3)nn12 [Example 146]

Structure (SMILES)	pIC50
CCCCCc1cc(C23CC4CC(CC(C4)C2)C3)nc2cc(C(=O)N3CCCCCC3)nn12 [Example 133]	6.44

Reference: US20240376109A1, “PYRAZOLO[1,5-A]PYRIMIDINE COMPOUND FOR THE TREATMENT OF DERMAL DISORDERS” (OTSUKA PHARMACEUTICAL CO., LTD., priority 2021, published 2024)
